This is an account of results in publication PMC11594916, “In Vitro Cell Model Investigation of Alpha-Synuclein Aggregate Morphology Using Spectroscopic Imaging” (International Journal of Molecular Sciences, 2024).

Each structure is given as a SMILES string. pKd: −log10 of the molar value.

This assay has as its target T1, alpha-synuclein (αsyn) pre-formed fibrils (Homo sapiens, UniProt P37840).
T1 construct: gene SNCA; Full-length wildtype human αsyn, pre-formed amyloid fibrils (PFFs)
Put plainly: fluorescence titration of h-FTAA with […] recombinant fibrils, simulated binding curve; lifetime imaging (FLIM).

Take `O=C(O)Cc1cc(-c2ccc(-c3ccc(C(=O)O)s3)s2)sc1-c1ccc(-c2sc(-c3ccc(-c4ccc(C(=O)O)s4)s3)cc2CC(=O)O)s1` [h-FTAA]: the pKd (commonly the negative decadic logarithm of the Kd, by convention in mol/L) is greater than 7.00.
